Read-outs that look alike come from different tables or passages of the source.
Assays:
[1] = test system: C. albicans mature biofilms; assay: Established (mature, 24-h) biofilm susceptibility (XTT reduction, LIVE/DEAD confocal microscopy)
Description: LIVE/DEAD staining of the biofilm was performed and dead cells were quantified in confocal micrographs.
(§1) Candida albicans was subcultured onto Sabouraud dextrose agar (per liter: peptone 10 g, dextrose 40 g, agar 15 g; pH of 5.6) and incubated at 30° C. for 24 h. One colony was then added to yeast extract-peptone-dextrose (YPD; 1% yeast extract, 2% peptone, 2% dextrose) and incubated with shaking at 30° C. and 170 rpm for 16 h, after which cells were harvested, washed in phosphate-buffered saline (PBS), and diluted to a standard inoculum of 1.0×10^6 cells per ml.
(§2) For biofilm assays in microtiter plates, 100 μl of a standard inoculum of C. albicans cells (1.0×10^6 cells per ml) was added to the wells of a 96-well plate in triplicate, and the cells were allowed to adhere for 90 min at 37° C. After incubation, the plates were washed twice with PBS to remove nonattached cells. Then 100 μl of RPMI 1640 with L-glutamine, without sodium bicarbonate (GIBCO®), buffered to pH 7.0 with 165 mM morpholinepropanesulfonic acid (MOPS) was added to each well, and the plates were incubated at 37° C. for 24 h. Early-stage biofilms were prepared essentially as above, with the exception that the cells were induced to form biofilms for either 3 or 6 h prior to treatment.
Fluconazole was obtained from Sigma. All drugs were dissolved in dimethyl sulfoxide (DMSO).
Menadione and XTT [2,3-bis-(2-methoxy-4-nitro-5-sulfophenyl)-2H-tetrazolium-5-carboxyanilide] were obtained from Sigma-Aldrich. After a drug challenge, the wells were washed twice with PBS, and then 100 μl of XTT-menadione solution was added to the wells, and plates incubated in the dark for 1 h at 37° C. The absorbance of wells at 490 nm was read using a microplate reader (Biotec/Synergy software).
Candida albicans biofilms were treated with or without test compounds for various times, depending on the experimental design, after which the cells were prepared for microscopy by staining with the BacLight yeast viability kit, the contents of which include Syto-9 and propidium iodide (Molecular Probes, Eugene, Oreg.) according to the manufacturer's instructions. Confocal images were obtained using an Olympus FluoView10i microscope and a filter set for Syto-9 and propidium iodide. Overlays included phase contrast images. All confocal images were processed using ImageJ.
Biofilm viability was assayed by XTT reduction and calculated as follows:
[formula] where background wells contained XTT solution only; untreated wells received cells only, with no added drug.

[2] = test system: C. albicans DAY185 planktonic cells; assay: Planktonic cell growth and viability; assay type: cell-based, Candida albicans; details: 0.06 μg per ml
Description: Small arrows (FIG. 1B and FIG. 1C) denote chains of yeast cells. Note the microcolonies apparent in the control culture at 3 hours (FIG. 2B) and 9 hours (FIG. 2C) denoted by the large arrows. […] Under these conditions, some yeast cells formed short linear chains, but there were few germ tubes, and the culture never developed true hyphae. […] When germ tubes were allowed to emerge before treatment with xanthochymol, the germ tubes elongated and branched for several hours. In contrast, when C. albicans DAY185 planktonic cells were grown in YPD in the presence or absence of either Garcinia benzophenone (70 μg per ml), there was no significant effect on the growth or viability.

[3] = test system: C. albicans early biofilms; assay type: cell-based, Candida albicans; details: fluconazole at 32 μg per ml, FIG. 3
Description: as §1
as §2, with “Early-stage biofilms were prepared essentially as above, with the exception that the cells were induced to form biofilms for either 3 or 6 h prior to treatment.” left out
Menadione and XTT [2,3-bis-(2-methoxy-4-nitro-5-sulfophenyl)-2H-tetrazolium-5-carboxyanilide] were obtained from Sigma-Aldrich. […] The absorbance of wells at 490 nm was read using a microplate reader (Biotec/Synergy software). […]
Biofilm viability was assayed by XTT reduction and calculated as follows: […]

[4] = target: pCAF (Homo sapiens, UniProt Q92831); details: cited from earlier work
[5] = target: histone acetyltransferase (HAT) p300 (Homo sapiens, UniProt Q09472); details: cited from earlier work
histone acetyltransferase (HAT) p300, sequence (Q09472 whole entry): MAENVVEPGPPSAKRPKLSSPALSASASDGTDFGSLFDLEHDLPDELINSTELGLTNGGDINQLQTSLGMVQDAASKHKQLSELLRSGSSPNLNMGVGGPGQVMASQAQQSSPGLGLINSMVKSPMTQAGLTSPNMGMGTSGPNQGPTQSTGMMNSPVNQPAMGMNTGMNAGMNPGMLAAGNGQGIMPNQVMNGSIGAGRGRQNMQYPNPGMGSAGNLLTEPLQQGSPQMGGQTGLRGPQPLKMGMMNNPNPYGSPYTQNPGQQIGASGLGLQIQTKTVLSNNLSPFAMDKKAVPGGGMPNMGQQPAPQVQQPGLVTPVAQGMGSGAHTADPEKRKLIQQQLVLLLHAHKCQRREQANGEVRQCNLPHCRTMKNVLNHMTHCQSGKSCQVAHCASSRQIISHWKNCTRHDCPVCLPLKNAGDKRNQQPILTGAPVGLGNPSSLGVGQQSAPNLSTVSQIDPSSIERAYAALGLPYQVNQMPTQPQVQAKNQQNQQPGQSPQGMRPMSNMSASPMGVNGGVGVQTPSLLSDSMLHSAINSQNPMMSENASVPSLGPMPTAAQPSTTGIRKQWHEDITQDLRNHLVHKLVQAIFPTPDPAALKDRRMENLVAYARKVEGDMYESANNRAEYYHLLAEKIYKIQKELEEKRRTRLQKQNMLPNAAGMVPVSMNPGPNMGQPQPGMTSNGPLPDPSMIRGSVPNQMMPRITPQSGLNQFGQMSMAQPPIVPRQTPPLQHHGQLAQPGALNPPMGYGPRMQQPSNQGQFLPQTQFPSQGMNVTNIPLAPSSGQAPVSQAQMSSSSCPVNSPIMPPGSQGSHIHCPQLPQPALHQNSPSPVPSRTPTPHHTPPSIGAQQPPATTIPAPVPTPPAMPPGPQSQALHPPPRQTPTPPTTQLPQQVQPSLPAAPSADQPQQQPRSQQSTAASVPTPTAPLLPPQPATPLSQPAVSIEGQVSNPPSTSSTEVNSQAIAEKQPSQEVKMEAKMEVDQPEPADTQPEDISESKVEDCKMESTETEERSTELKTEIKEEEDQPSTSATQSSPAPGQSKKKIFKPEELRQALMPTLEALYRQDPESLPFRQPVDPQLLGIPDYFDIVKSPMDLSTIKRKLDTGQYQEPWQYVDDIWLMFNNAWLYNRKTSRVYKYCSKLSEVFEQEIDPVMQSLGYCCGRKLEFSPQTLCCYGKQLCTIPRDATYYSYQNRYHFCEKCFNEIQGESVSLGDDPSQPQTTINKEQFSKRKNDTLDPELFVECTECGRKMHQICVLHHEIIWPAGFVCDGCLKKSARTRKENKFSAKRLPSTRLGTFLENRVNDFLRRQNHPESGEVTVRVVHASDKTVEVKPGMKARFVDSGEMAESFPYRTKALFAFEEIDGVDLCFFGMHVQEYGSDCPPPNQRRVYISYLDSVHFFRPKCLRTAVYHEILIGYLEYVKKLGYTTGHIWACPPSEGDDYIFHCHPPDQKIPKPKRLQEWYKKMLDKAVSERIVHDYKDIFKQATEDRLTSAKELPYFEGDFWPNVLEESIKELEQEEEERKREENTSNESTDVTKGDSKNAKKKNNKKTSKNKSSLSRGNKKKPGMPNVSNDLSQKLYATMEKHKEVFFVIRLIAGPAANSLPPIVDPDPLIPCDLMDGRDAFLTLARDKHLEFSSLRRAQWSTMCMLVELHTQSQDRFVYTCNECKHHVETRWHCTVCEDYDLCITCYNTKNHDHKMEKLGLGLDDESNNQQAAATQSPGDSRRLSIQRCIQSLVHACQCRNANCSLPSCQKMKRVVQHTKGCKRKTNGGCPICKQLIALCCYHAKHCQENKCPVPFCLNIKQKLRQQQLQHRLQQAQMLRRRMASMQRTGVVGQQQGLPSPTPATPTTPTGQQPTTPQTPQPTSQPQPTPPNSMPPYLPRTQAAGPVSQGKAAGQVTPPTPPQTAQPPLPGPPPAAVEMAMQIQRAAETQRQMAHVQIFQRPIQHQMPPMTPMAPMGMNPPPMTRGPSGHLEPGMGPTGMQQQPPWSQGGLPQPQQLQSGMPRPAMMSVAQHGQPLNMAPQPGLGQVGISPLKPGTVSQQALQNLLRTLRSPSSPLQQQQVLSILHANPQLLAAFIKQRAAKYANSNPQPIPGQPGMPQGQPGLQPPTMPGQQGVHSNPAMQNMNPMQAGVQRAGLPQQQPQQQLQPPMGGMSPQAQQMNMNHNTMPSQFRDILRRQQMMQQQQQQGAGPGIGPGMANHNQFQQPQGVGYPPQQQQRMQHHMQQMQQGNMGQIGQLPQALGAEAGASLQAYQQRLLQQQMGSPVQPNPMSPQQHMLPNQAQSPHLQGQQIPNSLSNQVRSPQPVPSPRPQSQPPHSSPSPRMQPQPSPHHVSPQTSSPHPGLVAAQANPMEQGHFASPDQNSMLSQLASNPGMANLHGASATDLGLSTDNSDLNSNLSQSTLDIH

pCAF, sequence (Q92831 whole entry, species assumed): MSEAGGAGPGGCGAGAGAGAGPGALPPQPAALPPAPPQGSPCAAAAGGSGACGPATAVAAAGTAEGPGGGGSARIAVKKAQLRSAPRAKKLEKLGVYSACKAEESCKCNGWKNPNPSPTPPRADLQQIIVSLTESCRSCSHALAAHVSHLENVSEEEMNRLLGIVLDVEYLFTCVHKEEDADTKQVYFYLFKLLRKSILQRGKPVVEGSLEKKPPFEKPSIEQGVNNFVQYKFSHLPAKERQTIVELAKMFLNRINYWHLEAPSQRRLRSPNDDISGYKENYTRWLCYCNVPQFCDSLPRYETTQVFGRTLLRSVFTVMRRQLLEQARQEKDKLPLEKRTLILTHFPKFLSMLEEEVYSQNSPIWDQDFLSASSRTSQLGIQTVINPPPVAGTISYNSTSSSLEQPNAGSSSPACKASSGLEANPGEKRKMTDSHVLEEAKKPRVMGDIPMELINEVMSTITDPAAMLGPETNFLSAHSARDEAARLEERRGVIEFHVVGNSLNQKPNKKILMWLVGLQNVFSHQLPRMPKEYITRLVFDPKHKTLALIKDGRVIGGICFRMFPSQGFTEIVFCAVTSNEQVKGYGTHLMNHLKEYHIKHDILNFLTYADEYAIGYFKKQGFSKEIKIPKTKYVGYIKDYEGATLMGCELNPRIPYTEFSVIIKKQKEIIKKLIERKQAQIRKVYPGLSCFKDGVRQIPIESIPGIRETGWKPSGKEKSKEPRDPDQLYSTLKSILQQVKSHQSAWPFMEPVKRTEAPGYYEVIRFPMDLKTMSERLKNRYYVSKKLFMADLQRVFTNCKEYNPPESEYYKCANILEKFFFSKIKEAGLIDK

For `CC[C@H](C)C[C@H](C)CCCCCCCCC(=O)N[C@H]1C[C@@H](O)[C@@H](NCCN)NC(=O)[C@@H]2[C@@H](O)CCN2C(=O)[C@H]([C@H](O)CCN)NC(=O)[C@H]([C@H](O)[C@@H](O)c2ccc(O)cc2)NC(=O)[C@@H]2C[C@@H](O)CN2C(=O)[C@H]([C@@H](C)O)NC1=O` [caspofungin], the “killing of biofilm (positive control)” value ([1]; 0.06 μg per ml) was “less effective against a biofilm” and the “killing of planktonic yeast phase cells” value [2] was “showed killing”.
With `OC(Cn1cncn1)(Cn1cncn1)c1ccc(F)cc1F` [fluconazole] the “killing of biofilm cells by microscopy” value ([1]; 24-h biofilms, 24 h of exposure, confocal LIVE/DEAD) was “minimal effect”, the reduction in viability ([1]; 24-h biofilms, fluconazole as high as 1,024 μg per ml, XTT assay) was 15% and the IC50 ([1]; Candida albicans, 24 h, read-out: fluconazole IC50) was 13 µg/mL. The EC50 ([1]; Candida albicans, read-out: fluconazole EC50, mature biofilms, fluconazole alone) was > 1020 µg/mL, the EC50 ([1]; Candida albicans, read-out: fluconazole EC50, mature biofilms, with xanthochymol) was 13 µg/mL and the “reduction of biofilm activity” value [3] was 20%.
In the case of `C=C(C)CC[C@@H](C[C@@]12C[C@@H](CC=C(C)C)C(C)(C)[C@@](CC=C(C)C)(C(=O)C(C(=O)c3ccc(O)c(O)c3)=C1O)C2=O)C(=C)C` [garcinol], the “inhibition of pCAF” value [4] is listed as “micromolar concentrations” and the “inhibition of HAT p300” value [5] is listed as “micromolar concentrations”.
